The values below are quoted from earlier work in US5672583A, “Carboxy-peptidyl derivatives as antidegenerative active agents” (Merck & Co., Inc., priority 1995, dated 1997).

For data set [1], the target named is rabbit bone proteoglycanase (Oryctolagus cuniculus, UniProt P28863). The note with it: Delaisse et al., Biochem. Biophys. Res. Commun. 133, 483-90 (1985).
For data set [2], the target named is T1, human rheumatoid synovial collagenase (Homo sapiens, UniProt P03956).
T1 sequence (P03956 100-469): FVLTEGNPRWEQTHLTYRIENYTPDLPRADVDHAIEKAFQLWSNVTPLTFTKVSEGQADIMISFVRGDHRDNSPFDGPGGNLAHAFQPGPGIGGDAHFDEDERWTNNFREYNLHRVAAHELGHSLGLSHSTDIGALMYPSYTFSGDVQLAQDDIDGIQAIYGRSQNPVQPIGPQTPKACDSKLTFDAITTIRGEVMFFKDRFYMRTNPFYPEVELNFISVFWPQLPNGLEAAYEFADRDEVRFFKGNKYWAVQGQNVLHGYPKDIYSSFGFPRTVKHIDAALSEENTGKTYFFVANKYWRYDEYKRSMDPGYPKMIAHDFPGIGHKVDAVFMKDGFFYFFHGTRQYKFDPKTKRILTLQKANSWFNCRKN
The note with it: Delaisse et al., Biochem. Biophys. Res. Commun. 133, 483-90 (1985).

pIC50: −log10 of the molar value.

rabbit bone proteoglycanase, sequence (P28863 101-478): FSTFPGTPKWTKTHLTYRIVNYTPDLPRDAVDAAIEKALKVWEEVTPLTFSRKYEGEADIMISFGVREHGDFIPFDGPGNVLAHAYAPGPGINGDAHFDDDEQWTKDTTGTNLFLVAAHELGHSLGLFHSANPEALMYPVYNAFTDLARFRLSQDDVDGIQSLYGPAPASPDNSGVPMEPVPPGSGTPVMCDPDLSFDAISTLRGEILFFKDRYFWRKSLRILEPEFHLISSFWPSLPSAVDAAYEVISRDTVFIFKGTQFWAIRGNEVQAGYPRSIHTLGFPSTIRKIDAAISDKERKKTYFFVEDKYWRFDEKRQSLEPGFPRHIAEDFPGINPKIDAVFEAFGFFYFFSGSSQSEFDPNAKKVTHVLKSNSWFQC

Usually pIC50 stands for −log10 of the IC50, conventionally taken in molar units. On to `CNC(=O)[C@H](Cc1ccc(OC)cc1)NC(=O)[C@H](CC(C)C)NC(CCNC(=O)OCc1ccccc1)C(=O)O` (stereo partly drawn) [N-[3-(benzyloxycarbonyl)amino-1-carboxy-n-propyl]-L-leucyl-O-methyl-L-tyrosine, N-methylamide], for which the pIC50 in data set [1] is 6.30; in data set [2] it was 6.10.
